Laboratory results: PubChem BioAssay (NCI)
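48-hour exposure; five concentrations; linearly interpolated endpoints. Abbreviation: GI50, concentration required for 50% inhibition of growth. At the TGI there is no net growth.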

Tests used:
Experiment in all cases: NCI-60 cell line screen, 48 h
[1] = test system: LOX IMVI melanoma
[2] = test system: NCI-H23 lung
[3] = test system: NCI/ADR-RES ovarian
[4] = test system: HCC-2998 colon
[5] = test system: TK-10 renal
[6] = test system: MCF7 breast
[7] = test system: KM12 colon
[8] = test system: MDA-MB-468 breast
[9] = test system: HL-60(TB) leukemia
[10] = test system: CCRF-CEM leukemia
[11] = test system: HS 578T breast
[12] = test system: U251 CNS
[13] = test system: UACC-62 melanoma
[14] = test system: HCT-116 colon
[15] = test system: CAKI-1 renal
[16] = test system: BT-549 breast
[17] = test system: COLO 205 colon
[18] = test system: SW-620 colon
[19] = test system: SK-OV-3 ovarian
[20] = test system: MDA-MB-435
[21] = test system: UO-31 renal
[22] = test system: SF-539 CNS
[23] = test system: EKVX NSCLC
[24] = test system: OVCAR-4 ovarian
[25] = test system: T-47D breast
[26] = test system: IGROV1 ovarian
[27] = test system: HT29 colon
[28] = test system: SF-268 CNS
[29] = test system: SK-MEL-5 melanoma
[30] = test system: SNB-75 CNS

In the case of `CCCCCCn1c(O)c(N=Nc2nc(-c3cc4ccccc4oc3=O)cs2)c2ccccc21`, the TGI [1] is reported as 28.9 µM, the GI50 [2] is reported as 12.2 µM and the TGI [2] is reported as 24.6 µM. For the same molecule, the GI50 [3] was 15.1 µM, the TGI [3] was 28.9 µM and the GI50 [4] was 16.2 µM. For the same molecule, the TGI [4] was 29.7 µM, the GI50 [5] was 19.4 µM and the TGI [5] was 33.6 µM. The GI50 [6] was 12.1 µM, the TGI [6] was 25.9 µM and the GI50 [7] was 17.9 µM. The TGI [7] was 33.8 µM, the GI50 [8] was 15.7 µM and the TGI [8] was 29.7 µM. It also gave a GI50 [9] of 18.8 µM, a TGI [9] of 45.1 µM and a GI50 [10] of 10.4 µM. For the same molecule, the TGI [10] was 44.8 µM, the GI50 [11] was 7.91 µM and the TGI [11] was 52.3 µM. It also gave a GI50 [12] of 15.8 µM, a TGI [12] of 29.9 µM and a GI50 [13] of 13.7 µM. The TGI [13] was 26.5 µM, the GI50 [14] was 11.1 µM and the TGI [14] was 23.4 µM. It also gave a GI50 [15] of 17.7 µM, a TGI [15] of 32.2 µM and a GI50 [16] of 15.7 µM. For the same molecule, the TGI [16] was 29.2 µM, the GI50 [17] was 11 µM and the TGI [17] was 24.9 µM. For the same molecule, the GI50 [18] was 16.6 µM, the TGI [18] was 31.3 µM and the GI50 [19] was 15.2 µM. It also gave a TGI [19] of 29.1 µM, a GI50 [20] of 17 µM and a TGI [20] of 31.2 µM. The GI50 [21] was 14.1 µM, the TGI [21] was 27.1 µM and the GI50 [22] was 16 µM. For the same molecule, the TGI [22] was 29.5 µM, the GI50 [23] was 9.61 µM and the TGI [23] was 21.4 µM. The GI50 [24] was 14.2 µM, the TGI [24] was 27.5 µM and the GI50 [25] was 12.7 µM. It also gave a TGI [25] of 32.5 µM, a GI50 [26] of 17.2 µM and a TGI [26] of 30.9 µM. The GI50 [27] was 11.6 µM, the TGI [27] was 24.4 µM and the GI50 [28] was 17.3 µM. For the same molecule, the TGI [28] was 38.6 µM, the GI50 [29] was 9.02 µM and the TGI [29] was 21.1 µM. For the same molecule, the GI50 [30] was 12 µM and the TGI [30] was 24.8 µM.
